Patent publication US20220274935A1, “PHARMACEUTICAL COMPOSITION FOR PREVENTING OR TREATING BONE DISEASES” (INDUSTRY FOUNDATION OF CHONNAM NATIONAL UNIVERSITY, priority 2019, published 2022)

Experiments:
preosteoclasts = assay: MTT assay for cytotoxicity assessment (cell viability); format: cell-based, mouse; details: MCSF 30 ng/mL, concentration of 10 uM
Protocol: MTT Assay for Cytotoxicity Assessment
After treatment of preosteoclasts with 35D35 or 35D3 (=PPOA) (1-10 uM), cell viability was evaluated. Specifically, 1×10^4 cells per well were put into a 96-well plate, and only MCSF (30 ng/mL) and PPOA were cultured by day under the indicated concentration conditions. Thereafter, a cell viability assay reagent (DoGen, EZ-3000) was used with 1/10 of the volume of the medium for treatment, and then the cells were incubated at 37° C. for 30 minutes and observed at […]. […] That is, it was confirmed that there was no cytotoxicity.

[1] = tested on: osteoclast differentiation of monocytes isolated from the mouse bone marrow; assay: Osteoclast differentiation inhibitory ability through TRAP staining and assay (RANKL-induced monocytes); format: cell-based; details: treated together with RANKL; compared to other derivatives; FIG. 1
Protocol: The bone marrow of a 10-week-old female mouse was isolated from the hip bone, femur and tibia, followed by culturing the same in α-MEM medium (Gibco, 12561-056, 10% fetal bovine serum, 1% penicillin/streptomycin) containing macrophage colony stimulating factor (M-CSF, PeproTech, 315-02, 30 ng/ml) for 3 days in order to isolate only monocytes. The isolated monocytes were treated with receptor activator of nuclear factor kappa B ligand (RANKL, PeproTech, 315-11, 50 ng/ml) to induce osteoclast differentiation. During RANKL treatment, each compound (35D35, 35D5, 35D3, and 35D8) was used for treatment and the cells were cultured for 3 or 5 days so as to confirm the degree of osteoclast differentiation.
1×10^4 monocytes isolated from the mouse bone marrow were put into a 96-well plate and treated with each compound (35D35, 35D5, 35D3, and 35D8) together with RANKL, thereby confirming the effects of each compound on osteoclast differentiation ability. Using the TRAP activity assay kit (Cosmo Bio, PMC-AK04F-COS), the activity of tartrate-resistant acid phosphatase (TRAP) with increased expression during osteoclast differentiation was confirmed. […] After staining, multinuclear cells formed during osteoclast differentiation were confirmed under a microscope. Further, each well was photographed and a differentiation area ratio per total area was determined using Image J software.
Further, the effects of the 35D35 compound having excellent osteoclast production inhibitory ability with respect to osteoclast differentiation period was investigated. Specifically, BMM was divided into 5 groups (Ctrl, Period I to IV), and cultured for 4 days in a culture medium containing 30 ng/mL M-CSF and 50 ng/mL RANKL. BMMs in Period I to IV groups were exposed to 1 μM 35D35 for 24 hours on different days, respectively. After 4 days, the cells of each group were fixed, followed by TRAP staining, and then, the presence of osteoclasts was confirmed.

[2] = tested on: RANKL-induced F-actin belt formation in BMM; assay: F-actin ring (belt) formation ability of differentiated osteoclasts; format: cell-based, mouse; details: 6 μM; FIG. 5
Protocol: In order to confirm the activity of differentiated osteoclasts, F-actin ring formation ability was measured. Specifically, BMM was seeded on a 12 mm cover glass with or without compounds (35D3: 6 μM, 35D5 and 35D35: 2 μM), followed by M-CSF and LANKL treatment. After the osteoclasts were formed in the control, the osteoclasts were fixed in 4.0% paraformaldehyde for 15 minutes, and then incubated in 5% FBS and blocked for about 60 minutes. After washing with PBS, rhodamine-conjugated phalloidin (1:40) was added to each well to visualize a F-actin belt. After 20 minutes, the cells were incubated along with a DAPI (1:5000) solution for 5 minutes. After washing three times with PBS, cells were observed using a fluorescence microscope.
A F-actin size was measured using Image J.

[3] = tested on: osteoclast differentiation of monocytes isolated from the mouse bone marrow; assay: Osteoclast differentiation inhibitory ability of 35D3 (PPOA) through TRAP staining and analysis; format: cell-based; details: 3 μM, compared to group in which osteoclasts were differentiated normally
Protocol: The bone marrow of a 12-week-old female mouse was isolated from the hip bone, femur and tibia, followed by culturing the same in α-MEM medium (Gibco, 12561-056, 10% fetal bovine serum, 1% penicillin/streptomycin) containing macrophage colony stimulating factor (M-CSF, PeproTech, cat #315-02, 30 ng/ml) for 3 days in order to isolate only monocytes. The isolated monocytes were treated with RANKL (PeproTech, cat #315-11, 50 ng/ml) to induce osteoclast differentiation. Then, 35D3 (PPOA) was also used for treatment, followed by culturing the cells for 3 days or 5 days.
1×10^4 monocytes isolated from the mouse bone marrow were put into a 96-well plate and treated with RANKL to confirm the effect of 35D3 (PPOA) (3 μM) on osteoclast differentiation ability.
The activity of tartrate-resistant acid phosphatase (TRAP), which has increased expression during osteoclast differentiation, was confirmed using a TRAP activity assay kit (Sigma-Aldrich, 387A-1kt), which is shown in FIG. 16.
After staining, the multinuclear cells formed during osteoclast differentiation were observed under a microscope, and 12 images per well were photographed and combined into one well image, and a differentiation area ratio per total area was confirmed using Image J software. The differentiation area ratio per total area is shown in A of FIG. 17, and the area of TRAP-positive cells (nuclear number >3) was compared with DMSO (100%) and presented as a relative value.
Further, the number of differentiated osteoclasts was counted and determined, and this was shown in B of FIG. 17, and cells in which the number of cell nuclei contained in the differentiated osteoclasts is in the range of 3-5, 6-10, 11-20, and 21 or more, were classified and shown in C of FIG. 17.

[4] = tested on: F-actin formation in mouse bone marrow cells; assay: F-actin staining for differentiation into multinuclear cells, 35D3 (PPOA); format: cell-based; details: 6 uM, cultured 4 to 5 days; FIG. 18
Protocol: In order to determine the activity of differentiated osteoclasts, an ability of differentiating into multinuclear cells was measured through F-actin staining. 5×10^4 mouse bone marrow cells per well was put into a 24-well plate in which glass coated with L-Lysine was placed (Corning, 354085). At the same time, the cells were treated with 6 uM of 35D3 (PPOA) and then cultured for 4 to 5 days. The differentiated cells were fixed with 4% formaldehyde for 10 minutes and washed with PBS. For an antigen-antibody reaction, the cells were subjected to a reaction in 0.1% Triton-PBS for 20 minutes, followed by a reaction with 1% BSA for 1 hour. The F-actin antibody (Thermo Fisher Scientific, A12379) was reacted for 1 hour and then washed. Cell nuclei were stained through DAPI (4′,6-Diamidino-2-Phenylindole, Dilactate, Thermo Fisher Scientific, D3571) staining, and then, photographed under a microscope. As a result, it was confirmed that the size of F-actin was different depending on the presence or absence of 35D3 (PPOA) treatment (see FIG. 18).

[5] = tested on: bone resorption ability of osteoclasts (mouse bone marrow cells); assay: Bone resorption assay kit, 35D3 (PPOA); format: cell-based; details: exposure to 3, 6, and 10 μM; FIG. 19
Protocol: Further, the bone resorption ability was confirmed using a bone resorption assay kit (Cosmo Bio, CSR-BRA). Mouse bone marrow cells were seeded on a bone resorption assay plate 48 (2×10^4 cells/well) containing 30 ng/Ml of M-CSF. […] The next day, the culture supernatant from the cells was collected on a 96-well black polypropylene micro-well plate (Thermo Fisher Scientific Nunc, Waltham, Md., USA). After mixing 50 μL of 0.1 N of NaOH, fluorescence intensity was measured with a fluorescence plate reader (Molecular Devices, San Jose, Calif., USA-model: SpectraMax i3x); and the excitation and emission wavelengths were […] and 535 nm, respectively. The absorption area was calculated in consideration of 10 randomly selected pictures per well taken at 10 magnification using Image J software (https://imagej.nih.gov/ij).

[6] = tested on: ovariectomized mouse model (OVX); assay: Ovariectomized (OVX) mouse osteoporosis model, tibia micro-computed tomography; format: in vivo; details: OVX mice, intraperitoneal once every two days, after 4 weeks, microcomputer tomography; FIGS. 11 to 14
Protocol: An ovariectomized mouse model (OVX, ovariectomized mouse) with osteoporosis due to estrogen deficiency after ovariectomy in 8-week-old female mouse were prepared. Compounds (35D35, 35D5, and 35D3), respectively, were injected intraperitoneally once every two days to the ovariectomized mouse model. After 4 weeks, the tibia of each mouse was analyzed for bone density by microcomputer tomography.
FIGS. 11 to 14 show the micro-computed tomography results (Sham: the control in which the ovaries were not removed) and graphs for analysis of the micro-computed tomography results with regard to the tibia of the mouse models (*P<0.05, **P<0.01, and ***P<0.001 vs. the control, OVX. BMD: trabecular bone mineral density).

Compound: CC(=O)N1CCN(c2ccccc2NC(=O)COc2ccccc2Cl)CC1 [35D3, N-(2-(4-acetylpiperazin-1-yl)phenyl)-2-(2-chlorophenoxy)acetamide]
- cytotoxicity (cell viability, apoptosis effects) (preosteoclasts): apoptosis effects were not exhibited
- degree of osteoclast differentiation by TRAP staining [1]: superior osteoclast differentiation inhibitory effects compared to other derivatives
- inhibition of RANKL-induced F-actin belt formation [2]: excellent effects of inhibiting RANKL-induced F-actin belt formation
- giant multinuclear cells ([3]; FIG. 17): significantly reduced
- number of osteoclasts ([3]; FIG. 17): significantly reduced
- differentiation area (TRAP-positive cells per total area) ([3]; FIGS. 16 and 17): significantly reduced
- differentiation into multinuclear cells (size of F-actin) [4]: could inhibit differentiation into multinuclear cells
- proportion of bone resorption area [5]: significant decrease
- bone density of tibia vs control (OVX) [6]: did not exhibit higher
- bone volume of tibia vs control (OVX) [6]: did not exhibit higher
